The text below walks through data of patent US20240383954A1, “PEPTIDE INHIBITORS OF INTERLEUKIN-23 RECEPTOR AND THEIR USE TO TREAT INFLAMMATORY DISEASES” (Janssen Biotech, Inc., priority 2020, published 2024).

Positions of bridges follow the written chain, without caps; N, C: chain ends. Non-standard residues stand in square brackets, D forms with d. Residues, ends and D or L forms follow the SMILES beside them. *: point of attachment. Trp(7-Me) = Cc1cccc2c(C[C@H](N)C(=O)O)c[nH]c12; 2Nal = N[C@@H](Cc1ccc2ccccc2c1)C(=O)O; AEF = NCCOc1ccc(C[C@H](N)C(=O)O)cc1; Cit = NC(=O)NCCC[C@H](N)C(=O)O; αMeL = CC(C)C[C@](C)(N)C(=O)O; Pen = CC(C)(S)[C@H](N)C(=O)O; Thp = NC1(C(=O)O)CCOCC1; NHBn = c1ccc(CN*)cc1
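Also: cryopreserved PBMCs stimulated at 37 °C in 5% CO2, then lysed, with phosphorylated STAT3 quantified in lysates using a phospho-STAT panel kit.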

Sequence of IL-23R (Q5VWK5 24-629): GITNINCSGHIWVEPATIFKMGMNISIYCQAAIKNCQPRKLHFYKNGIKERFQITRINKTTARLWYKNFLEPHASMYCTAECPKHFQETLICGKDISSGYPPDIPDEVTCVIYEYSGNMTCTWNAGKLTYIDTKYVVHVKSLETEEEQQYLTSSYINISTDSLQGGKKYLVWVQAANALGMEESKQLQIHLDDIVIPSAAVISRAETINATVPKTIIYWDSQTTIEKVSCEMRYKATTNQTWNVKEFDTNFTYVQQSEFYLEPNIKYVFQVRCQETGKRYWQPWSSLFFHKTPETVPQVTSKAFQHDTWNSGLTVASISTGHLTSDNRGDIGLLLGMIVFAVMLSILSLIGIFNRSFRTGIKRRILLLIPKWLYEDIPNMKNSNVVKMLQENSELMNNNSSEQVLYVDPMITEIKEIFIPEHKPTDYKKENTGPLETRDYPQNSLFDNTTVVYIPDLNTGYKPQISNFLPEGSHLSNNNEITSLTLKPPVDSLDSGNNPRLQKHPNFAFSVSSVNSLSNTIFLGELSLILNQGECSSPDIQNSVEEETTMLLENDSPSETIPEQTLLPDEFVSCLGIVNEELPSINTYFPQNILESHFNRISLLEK

The assay has as its target IL-23R (Homo sapiens, UniProt Q5VWK5). Briefly: cell-based. Particulars: PBMC pSTAT3 IC50 (nM), PBMCs from healthy donors, IL-23 5 ng/mL, 30 minutes, phosphorylated STAT3.
Protocol: Cryopreserved peripheral blood mononuclear cells (PBMCs) from healthy donors were thawed and washed twice in ImmunoCult-XF T cell expansion medium (XF-TCEM) supplemented with CTL anti-aggregate wash. […] The cells were stimulated with cytokine for 30 minutes at 37° C. in 5% CO2, transferred onto ice for 10 minutes, and lysed. Cell lysates were stored at −80° C. until phosphorylated STAT3 was measured using the phospho-STAT panel kit (Meso Scale Discovery, K15202D).
`CC(=O)NCCCC[C@H](NC(=O)[C@](C)(CC(C)C)NC(=O)[C@H](Cc1ccc2ccccc2c1)NC(=O)[C@H](Cc1ccc(OCCN)cc1)NC(=O)[C@H]1NC(=O)[C@H](CCCNC(N)=O)NC(=O)[C@H](Cc2c[nH]c3c(C)cccc23)NC(=O)[C@H]([C@@H](C)O)NC(=O)[C@H](CC(N)=O)NC(=O)[C@@H](NC(C)=O)C(C)(C)SSC1(C)C)C(=O)N[C@@H](CC(N)=O)C(=O)NC1(C(N)=O)CCOCC1` [Compound 108, Ac-[Pen]-N-T-[W(7-Me)]-[Cit]-[Pen]-Phe[4-(2-aminoethoxy)]-[2-Nal]-[aMeLeu]-[Lys(Ac)]-N-[THP]-NH2] (Ac-[Pen]NT[Trp(7-Me)][Cit][Pen][AEF][2Nal][αMeL]K(Ac)N[Thp]-NH2; disulfide 1-6): the IC50 came out at 5.1 nM.

Molecule `CC(=O)N[C@H](CCCNC(=N)N)C(=O)N[C@@H]1C(=O)N[C@@H](CCC(N)=O)C(=O)N[C@@H]([C@@H](C)O)C(=O)N[C@@H](Cc2c[nH]c3ccccc23)C(=O)N[C@@H](CCC(N)=O)C(=O)N[C@H](C(=O)N[C@@H](Cc2ccc(OCCN)cc2)C(=O)N[C@@H](Cc2ccc3ccccc3c2)C(=O)NC2(C(=O)N[C@@H](CCC(=O)O)C(=O)N[C@@H](CC(N)=O)C(=O)N[C@@H](CC(=O)NCc3ccccc3)C(N)=O)CCOCC2)C(C)(C)SSC1(C)C` [Compound 110, Ac-[(D)Arg]-[Pen]-Q-T-W-Q-[Pen]-Phe[4-(2-aminoethoxy)]-[2-Nal]-[THP]-E-N-[(N-benzyl)Asn]-NH2] (Ac-[dR][Pen]QTWQ[Pen][AEF][2Nal][Thp]END(NHBn)-NH2; disulfide 2-7) registered a concentration for half-maximal inhibition (IC50) of 700 nM. Against the preceding molecule, the IC50 is about 140-fold higher.

`CC(=O)NCCCC[C@@H]1NC(=O)[C@H](Cc2c[nH]c3c(C)cccc23)NC(=O)[C@H]([C@@H](C)O)NC(=O)[C@H](CC(N)=O)NC(=O)[C@@H](NC(C)=O)C(C)(C)SSC(C)(C)[C@@H](C(=O)N[C@@H](Cc2ccc(OCCN)cc2)C(=O)N[C@@H](Cc2ccc3ccccc3c2)C(=O)N[C@@](C)(CCCCN)C(=O)N[C@@H](CCCCNC(C)=O)C(=O)N[C@@H](CC(N)=O)C(=O)N[C@@](C)(Cc2ccccc2)C(=O)N[C@H](Cc2ccc(N)cc2)C(N)=O)NC1=O` [Compound 114, Ac-[Pen]-N-T-[W(7-Me)]-[Lys(Ac)]-[Pen]-Phe[4-(2-aminoethoxy)]-[2-Nal]-[a-MeLys]-[Lys(Ac)]-N-[a-MePhe]-(D)Phe[4-NH2]-NH2] gave a half-inhibitory concentration (IC50) of 12 nM.

As for `CC(=O)NCCCC[C@@H]1NC(=O)[C@H](Cc2c[nH]c3c(C)cccc23)NC(=O)[C@H]([C@@H](C)O)NC(=O)[C@H](CC(N)=O)NC(=O)[C@@H](NC(C)=O)C(C)(C)SSC(C)(C)[C@@H](C(=O)N[C@@H](Cc2ccc(OCCN)cc2)C(=O)N[C@@H](Cc2ccc3ccccc3c2)C(=O)N[C@@](C)(CCCCN)C(=O)N[C@@H](CCCCNC(C)=O)C(=O)N[C@@H](CC(N)=O)C(=O)N[C@@](C)(Cc2ccccc2)C(=O)N[C@H](Cc2cccc(N)c2)C(N)=O)NC1=O` [Compound 115, Ac-[Pen]-N-T-[W(7-Me)]-[Lys(Ac)]-[Pen]-Phe[4-(2-aminoethoxy)]-[2-Nal]-[a-MeLys]-[Lys(Ac)]-N-[a-MePhe]-(D)Phe[3-NH2]-NH2], the IC50 turned out to be 39 nM. This IC50 is about 3.2-fold higher than that of the molecule before.

`CC(=O)NCCCC[C@@H]1NC(=O)[C@H](Cc2c[nH]c3c(C)cccc23)NC(=O)[C@H]([C@@H](C)O)NC(=O)[C@H](CC(N)=O)NC(=O)[C@@H](NC(C)=O)C(C)(C)SSC(C)(C)[C@@H](C(=O)N[C@@H](Cc2ccc(OCCN)cc2)C(=O)N[C@@H](Cc2ccc3ccccc3c2)C(=O)N[C@@](C)(CCCCN)C(=O)N[C@@H](CCCCNC(C)=O)C(=O)N[C@@H](CC(N)=O)C(=O)N[C@@](C)(Cc2ccccc2)C(=O)N[C@@H](Cc2cccnc2)C(N)=O)NC1=O` [Compound 116, Ac-[Pen]-N-T-[W(7-Me)]-[Lys(Ac)]-[Pen]-Phe[4-(2-aminoethoxy)]-[2-Nal]-[a-MeLys]-[Lys(Ac)]-N-[a-MePhe]-[3Pal]-NH2]: the IC50 was determined as 20 nM.

As for `CC(=O)NCCCC[C@@H]1NC(=O)[C@H](Cc2c[nH]c3c(C)cccc23)NC(=O)[C@H]([C@@H](C)O)NC(=O)[C@H](CC(N)=O)NC(=O)[C@@H](NC(C)=O)CSSC[C@@](C)(C(=O)N[C@@H](Cc2ccc(OCCN)cc2)C(=O)N[C@@H](Cc2ccc3ccccc3c2)C(=O)N[C@@](C)(CCCCN)C(=O)N[C@@H](CCCCNC(C)=O)C(=O)N[C@@H](CC(N)=O)C(=O)NC2(C(N)=O)CCOCC2)NC1=O` [Compound 117, Ac-[Cys]-N-T-[W(7-Me)]-[Lys(Ac)]-[aMeCys]-Phe[4-(2-aminoethoxy)]-[2-Nal]-[a-MeLys]-[Lys(Ac)]-N-[THP]-NH2], the half-maximal inhibitory concentration (IC50) amounted to 7.1 nM.

Take `CC(=O)NCCCC[C@@H]1NC(=O)[C@H](Cc2c[nH]c3c(C)cccc23)NC(=O)[C@H]([C@@H](C)O)NC(=O)[C@H](CC(N)=O)NC(=O)[C@@H](NC(C)=O)CSSC[C@@](C)(C(=O)N[C@@H](Cc2ccc(OCCN)cc2)C(=O)N[C@@H](Cc2ccc3ccccc3c2)C(=O)N[C@@](C)(CCCCN)C(=O)N[C@@H](CCCCNC(C)=O)C(=O)N[C@@H](CC(N)=O)C(=O)N[C@@](C)(Cc2ccccc2)C(N)=O)NC1=O` [Compound 118, Ac-[Cys]-N-T-[W(7-Me)]-[Lys(Ac)]-[aMeCys]-Phe[4-(2-aminoethoxy)]-[2-Nal]-[a-MeLys]-[Lys(Ac)]-N-[a-MePhe]-NH2]: it took 30 nM to reach half-maximal inhibition (IC50).

As to `CC(=O)NCCCC[C@H](NC(=O)[C@](C)(CCCCN)NC(=O)[C@H](Cc1ccc2ccccc2c1)NC(=O)[C@H](Cc1ccc(OCCN)cc1)NC(=O)[C@]1(C)CSSC[C@H](NC(C)=O)C(=O)N[C@@H](CC(N)=O)C(=O)N[C@@H]([C@@H](C)O)C(=O)N[C@@H](Cc2c[nH]c3c(C)cccc23)C(=O)N[C@@H](CCC(N)=O)C(=O)N1)C(=O)N[C@@H](CC(N)=O)C(=O)N[C@@](C)(Cc1ccccc1)C(N)=O` [Compound 119, Ac-[Cys]-N-T-[W(7-Me)]-Q-[aMeCys]-Phe[4-(2-aminoethoxy)]-[2-Nal]-[a-MeLys]-[Lys(Ac)]-N-[a-MePhe]-NH2], the IC50 worked out at 5.3 nM.

As for `CC(=O)NCCCC[C@H](NC(=O)[C@](C)(CCCCN)NC(=O)[C@H](Cc1ccc2ccccc2c1)NC(=O)[C@H](Cc1ccc(OCCN)cc1)NC(=O)[C@]1(C)CSSC[C@H](NC(C)=O)C(=O)N[C@@H](CC(N)=O)C(=O)N[C@@H]([C@@H](C)O)C(=O)N[C@@H](Cc2c[nH]c3c(C)cccc23)C(=O)N[C@@H](CCC(N)=O)C(=O)N1)C(=O)N[C@@H](CC(N)=O)C(=O)NC1(C(N)=O)CCOCC1` [Compound 120, Ac-[Cys]-N-T-[W(7-Me)]-Q-[aMeCys]-Phe[4-(2-aminoethoxy)]-[2-Nal]-[a-MeLys]-[Lys(Ac)]-N-[THP]-NH2], the concentration for half-maximal inhibition (IC50) stood at 4.9 nM. This IC50 and that of the molecule before are within 1.5-fold of each other.

With `CC(=O)NCCCC[C@@H]1NC(=O)[C@H](Cc2c[nH]c3ccccc23)NC(=O)[C@H]([C@@H](C)O)NC(=O)[C@H](CC(N)=O)NC(=O)[C@@H](NC(C)=O)CSSC[C@@](C)(C(=O)N[C@@H](Cc2ccc(OCCN)cc2)C(=O)N[C@@H](Cc2ccc3ccccc3c2)C(=O)N[C@@](C)(CCCCN)C(=O)N[C@@H](CCCCNC(C)=O)C(=O)N[C@@H](CC(N)=O)C(=O)NC2(C(N)=O)CCOCC2)NC1=O` [Compound 121, Ac-[Cys]-N-T-W-[Lys(Ac)]-[aMeCys]-Phe[4-(2-aminoethoxy)]-[2-Nal]-[a-MeLys]-[Lys(Ac)]-N-[THP]-NH2], inhibition was half-maximal at 41 nM (IC50).

Broadly, the IC50 is the concentration that gives 50% inhibition. A low value points to greater potency in that assay.
